{"source": "patent US20210317102A1", "about": "“INHIBITORS OF INTEGRATED STRESS RESPONSE PATHWAY” (Praxis Biotech LLC, priority 2019, published 2021)", "assay_type_in_all_cases": "cell-based", "key": {"L-Wnt-3A cells": {"system": "L-Wnt-3A cells", "test": "Secretion of Wnt-3A by L-Wnt-3A cells", "settings": "1 µM compound 10, DMEM with reduced FBS (1%), 24 hours, vs vehicle", "experimental": "L-Wnt-3A cells (ATCC® CRL-2647™) were maintained at 37° C. and 5% CO2 in DMEM supplemented with 10% fetal bovine serum (FBS), 2 mM L-glutamine, 100 U/ml penicillin, and 100 μg/ml streptomycin. After reaching 80% of confluence, cells were detached and seeded on 6-well plates in complete media, allowed to recover for 48 h. Cells were then washed three times with PBS and treated with vehicle (1% DMSO) or 1 µM compound 10 in DMEM with reduced FBS (1%) for 24 hours. Then, culture media with cells were recovered in microtubes and centrifuged at 500 g for 5 minutes. Supernatants (SN) which contain secreted proteins were extracted and protease and phosphatase inhibitors (Roche) were added to each sample. SN were centrifuged at 2,000 g for 10 min to discard any cellular debris and 900 μL SN were transferred to empty microtubes with […] methanol by mixing well. 200 μL of chloroform was added to the mix and then samples were centrifuged at 14,000 g for 2 minutes. […] Quantification of protein bands was done by densitometry using ImageJ software.\nPercent of secreted Wnt-3A by L-Wnt3A cells treated with vehicle or compound 10 from two independent experiments is shown in FIG. 5. Percentage was calculated as the percent relative to […] secretion levels from L-Wnt-3A cells treated with vehicle which correspond to 100%."}, "[1]": {"system": "Chinese hamster ovary (CHO) cells", "test": "Protein synthesis assay (puromycin incorporation, western blot)", "settings": "Cricetulus griseus; unstressed CHO cells (without Tg), 1 μM test compound, 2 hours; media alone = 100%; read-out: % Protein synthesis relative to untreated (1 μM test compound)", "procedure,_shortened": "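CHO cells treated 2 h with 1 μM compound alone, or with 300 nM thapsigargin plus 1 μM compound, then pulsed 30 min with 10 μg/ml puromycin. Puromycin incorporation read by anti-puromycin western blot with densitometry. Unstressed values normalized to media alone (100%); stressed recovery normalized to media alone (100%) and Tg alone (0%).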"}, "[2]": {"system": "ATF4 expression, HEK293T cells carrying the ATF4 luciferase reporter", "test": "ATF4 expression inhibition assay (ATF4 luciferase reporter)", "settings": "Homo sapiens, HEK-293T, 100 nM thapsigargin, 3 hours", "procedure,_shortened": "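Stable HEK293T line expressing firefly luciferase behind the human full-length ATF4 5′UTR; cells stressed with 100 nM thapsigargin alongside compound (1 nM–10 μM) for 3 h at 37 °C. Luminescence normalized to Tg alone (0% inhibition) and untreated cells (100% inhibition) to give % ATF4 inhibition.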"}}, "data": [{"compound": "O=C(COc1ccc(Cl)c(F)c1)N[C@H]1CC[C@H](CNC(=O)c2ccc3cc(Cl)ccc3n2)CC1", "note": "[Compound 10, trans-6-chloro-N-((4-(2-(4-chloro-3-fluorophenoxy)acetamido)cyclohexyl)methyl)quinoline-2-carboxamide]", "values": [{"measurement": "Secretion of Wnt-3A", "setting": "L-Wnt-3A cells", "value": "increased the secretion of a particular protein (Wnt-3A)"}, {"measurement": "activity at 1 µM", "setting": "[1]", "value": 229, "unit": "%"}, {"measurement": "IC50", "setting": "[2]", "value": 0.106, "unit": "µM"}]}]}
